The numbers were not newly measured in patent publication US6326360A, “Bubbling enteric coated preparations” (Grelan Pharmaceuticals Co., Ltd., priority 1998, dated 2001), which cites them from elsewhere.

The conditions of this data set: oral tablets.

For `CC1(C)[C@@H](O[C@H]2O[C@H](C(=O)O)[C@@H](O)[C@H](O)[C@H]2O[C@@H]2O[C@H](C(=O)O)[C@@H](O)[C@H](O)[C@H]2O)CC[C@]2(C)[C@H]3C(=O)C=C4[C@@H]5C[C@@](C)(C(=O)O)CC[C@]5(C)CC[C@@]4(C)[C@]3(C)CC[C@@H]12` [glycyrrhizin], the “decomposition of glycyrrhizin in the stomach (in words)” value was “quickly decomposed into glycyrrhetinic acid in the stomach” and the “transfer of unchanged glycyrrhizin into blood (in words)” value was “hardly observed”.
